# Test system: α-galactosidase and β-galactosidase
# Experiment: Test in the presence of glycosidase (resistance to galactosidases, monitored by 19F NMR)
# Type: in vitro ADME
# Conditions: phosphate buffer 0.07 M, pH 7, 37° C.; α-galactosidase (5 units) and β-galactosidase (6.25 units); samples after 24, 48, 72, 96 and 120 hours
# Method: Indeed, it is known that the following compounds undergo enzymatic break-down (FIG. 25).
# The protocol used is as follows (FIG. 26)
# A solution of compound 17a1 (17.72 mg) in water (500 μl) is added to a solution of phosphate buffer (0.07 M; pH 7, 4 ml) containing α-galactosidase (5 units) and β-galactosidase (6.25 units) at 37° C. The reaction is monitored by ^19F NMR. Samples are taken after 24, 48, 72, 96 and 120 hours.
structure (smiles),measurement,value
C[C@H](NC(=O)[C@H](C)NC(=O)[C@@H](N)CCCCNC(=O)[C@H](F)[C@]1(O)O[C@H](CO)[C@H](O)[C@H](O)[C@H]1O)C(=O)O [Compound 17a1],resistance to glycosidases / stability (change of the starting product by 19F NMR),No change is observed and the starting product remains

# — US20090318678A1, “Stable C-Glycoside Sugar and C-Glycoconjugate Mimetics, Method for preparing same and uses Thereof in Particular in Cosmetics and Drugs” (TFCHEM, priority 2006, published 2009)
